The test system of one series is CYP3A. Particulars: cited from earlier work.
The conditions of series [1]: erythromycin; cited from earlier work.
For the next series, the target named is T1, CYP3A4.16 (Homo sapiens, UniProt P08684, T185S).
T1 construct: made in house; host or cells: Escherichia coli
Briefly: Mechanism-based inhibition of midazolam 1′-hydroxylation by recombinant CYP3A4.16. The class given is biochemical. The settings on record: substrate midazolam, geometric mean (–1S.D. ~ +1S.D.), n = 5. As to the method: (§1) 1′-Hydroxymidazolam was purchased from Biosciences-Discovery Labware (Tokyo, Japan). The membrane fraction of CYP3A4 (WT, .2, .7, .16, .18) expressed by Escherichia coli were prepared according to our previously reported method. All other chemicals and reagents of analytical and high-performance liquid chromatography (HPLC) grade were obtained from commercial sources.
(§2) Next, 4 µM midazolam solution (final concentration at incubation: 2 µM) together with NADPH-generating system solution and 300 mM K^+ phosphate buffer containing 0.3 mM EDTA were added to start the metabolic reaction for 20 minutes at 37 °C. The reaction was terminated by the addition of 450 µL of ice-cold methanol, followed by 50 µL of 0.1 µM nitrazepam as an internal standard. The mixture was then centrifuged at 3,500 ×g for 20 minutes at 4 °C, and the concentration of 1′-hydroxymidazolam in the supernatant was determined using HPLC-ultraviolet (UV) method described below.
(§3) The HPLC system consisted of a pump ([…]; Shimadzu, Kyoto, Japan), an UV-detector SPD-10AD (Shimadzu), and an octadecylsilyl column (Cosmosil, 5C18-MS-II, 4.6×250 mm, ODS; Nacalai Tesque, Kyoto, Japan). The mobile phase consisted of 50% methanol (v/v) and was pumped at a rate of 1.5 mL/min. The UV wavelength was set at 245 nm.

A short description of series [2]: Clinical plasma concentration. The series is classed as in vivo, human. Particulars: for Cmax,u (maximum plasma unbound concentration in the clinical settings): Cmax × fu; for Cmax: oral, human plasma, converted from μg/mL.
In another series the target is T2, CYP3A4.2 (Homo sapiens, UniProt P08684, S222P).
T2 construct: made in house; host or cells: Escherichia coli
Briefly: Mechanism-based inhibition of midazolam 1′-hydroxylation by recombinant CYP3A4.2. The series is classed as biochemical. Particulars: substrate midazolam, geometric mean (–1S.D. ~ +1S.D.), n = 5. On the procedure:
as §1, §2, §3

The next series concerns the target T3, CYP3A4 WT (Homo sapiens, UniProt P08684).
T3 construct: made in house; host or cells: Escherichia coli
Briefly: Mechanism-based inhibition of midazolam 1′-hydroxylation by recombinant CYP3A4 WT. The class given is biochemical. Particulars: substrate midazolam, geometric mean (–1S.D. ~ +1S.D.), n = 5, read-out: K I. On the procedure: as §1, §2, §3

The next series deals with T4, CYP3A4.7 (Homo sapiens, UniProt P08684, G56D).
T4 construct: made in house; host or cells: Escherichia coli
Briefly: Mechanism-based inhibition of midazolam 1′-hydroxylation by recombinant CYP3A4.7. The class given is biochemical. The settings on record: substrate midazolam, geometric mean (–1S.D. ~ +1S.D.), n = 5. On the procedure: as §1, §2, §3

Series [3] relates to CYP3A4 WT, .2, .7, .16, .18. Briefly: Mechanism-based inhibition of midazolam 1′-hydroxylation, results stated across the five variants. The class given is biochemical, human. Particulars: human, pH 7.4, probe midazolam 2 µM (1′-hydroxylation), range over the five variants. As to the method: as §2, §3
(§4) Based on the static model, residual enzyme activity (ε) under the steady state is determined by the inactivation rate by the MBI inhibitor (k inact ([I])) and the turnover rate in the absence of inhibitor (k deg), and calculated by using the following Equation 2.

Series [4] deals with five CYP3A4 genetic variants (Wt, .2, .7, .16, .18). The series is described as above. Particulars: all CYP3A4 variants; preincubation with NADPH-generating system. The class given is biochemical, human. As to the method: as §2, §3, §4
The subject of the next series is CYP3A4 genetic variants. Briefly: Static model estimate of residual enzyme activity and midazolam AUC ratio in CYP3A4 genetic variants. Set-up: species or system human. Particulars: all genetic variants; increase in AUC of 2- to < 5-fold; estimated. As to the method: as §4

The values that follow come from article PMC8795987, “Time-dependent inhibition of CYP3A4-mediated midazolam metabolism by macrolide antibiotics in CYP3A4 genetic variants: Comparison with testosterone metabolism” (International Journal of Clinical Pharmacology and …, 2021).

T1 sequence (P08684 whole entry T185S): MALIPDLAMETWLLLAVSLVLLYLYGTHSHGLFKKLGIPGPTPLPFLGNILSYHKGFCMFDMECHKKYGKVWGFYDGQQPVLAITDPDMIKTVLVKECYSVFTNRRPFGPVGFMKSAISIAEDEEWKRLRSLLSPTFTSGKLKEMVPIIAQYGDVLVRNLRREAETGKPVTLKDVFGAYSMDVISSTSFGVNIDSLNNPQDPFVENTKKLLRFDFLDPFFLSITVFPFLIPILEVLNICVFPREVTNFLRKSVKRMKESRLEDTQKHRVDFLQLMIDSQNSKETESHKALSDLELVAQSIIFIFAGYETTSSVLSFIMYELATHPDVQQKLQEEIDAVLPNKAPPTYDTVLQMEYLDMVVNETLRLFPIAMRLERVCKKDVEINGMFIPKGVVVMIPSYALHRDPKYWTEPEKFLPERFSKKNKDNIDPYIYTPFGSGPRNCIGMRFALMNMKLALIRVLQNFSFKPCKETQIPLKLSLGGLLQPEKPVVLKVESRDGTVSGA
T3 sequence (P08684 whole entry): as the sequence (P08684 whole entry T185S) above, with S185T counted along it
T4 sequence (P08684 whole entry G56D): as the sequence (P08684 whole entry T185S) above, with G56D, S185T counted along it
T2 sequence (P08684 whole entry S222P): as the sequence (P08684 whole entry T185S) above, with S185T, S222P counted along it

On to `Cc1ncc2n1-c1ccc(Cl)cc1C(c1ccccc1F)=NC2` [midazolam, Midazolam], for which the “fm,CYP3A (contribution of 1-hydroxylation by CYP3A to overall systemic elimination)” value in the series on CYP3A is 98%.

What is called Cmax is the highest concentration seen after dosing. Take `CC[C@H]1OC(=O)[C@H](C)[C@@H](O[C@H]2C[C@@](C)(OC)[C@@H](O)[C@H](C)O2)[C@H](C)[C@@H](O[C@@H]2O[C@H](C)C[C@H](N(C)C)[C@H]2O)[C@](C)(O)C[C@@H](C)C(=O)[C@H](C)[C@@H](O)[C@]1(C)O` [Erythromycin]: the “fu,mic (estimated unbound fraction in microsomal preparation)” value in series [1] was 0.857. Also, the Ki at CYP3A4.16 is 1820 nM; at CYP3A4.2, 1140 nM; at CYP3A4.7, 512 nM. In [2], the “Cmax,u (maximum plasma unbound concentration in the clinical settings)” value came out at 0.721 µM. The highest concentration (Cmax) in series [2] came to 1120 nM. In addition, the KI (inactivator concentration giving half-maximal inactivation rate) on CYP3A4 WT came out at 677 nM.

`CC[C@H]1OC(=O)[C@H](C)[C@@H](O[C@H]2C[C@@](C)(OC)[C@@H](O)[C@H](C)O2)[C@H](C)[C@@H](O[C@@H]2O[C@H](C)C[C@H](N(C)C)[C@H]2O)[C@](C)(OC)C[C@@H](C)C(=O)[C@H](C)[C@@H](O)[C@]1(C)O` [Clarithromycin]: in series [2], the “Cmax,u (maximum plasma unbound concentration in the clinical settings)” value amounted to 0.775 µM and the highest concentration (Cmax) was determined as 1550 nM. Besides, the Ki in series [3] (in vitro data in the present study, substrate midazolam, read-out: KI (range among variants)) was 689 to 2690 nM. Moreover, the KI (inactivation) in series [3] (product of K I and fu,mic, read-out: KI,u (unbound concentration of inhibitor that confers half-maximal rate of inactivation)) was 590 to 2310 nM. The “inhibition of 1′-hydroxylation of midazolam by all CYP3A4 variants” value in series [4] is given as “time-dependent manner”. The “extent of DDI category based on the FDA guideline” value in the series with CYP3A4 genetic variants is on record as “moderate”.
